Consider ten compounds from ChEMBL document CHEMBL1128897, “Bivalent indoles exhibiting serotonergic binding affinity” (Bioorg Med Chem Lett, 1995).

Experiment [1] has as its target Sodium-dependent serotonin transporter (Rattus norvegicus, UniProt P31652). The experiment is described as follows: Ability to inhibit Serotonin transporter.
In experiment [2] the target is T1, 5-hydroxytryptamine receptor 1A (Rattus norvegicus, UniProt P19327).
T1 sequence (P19327 whole entry): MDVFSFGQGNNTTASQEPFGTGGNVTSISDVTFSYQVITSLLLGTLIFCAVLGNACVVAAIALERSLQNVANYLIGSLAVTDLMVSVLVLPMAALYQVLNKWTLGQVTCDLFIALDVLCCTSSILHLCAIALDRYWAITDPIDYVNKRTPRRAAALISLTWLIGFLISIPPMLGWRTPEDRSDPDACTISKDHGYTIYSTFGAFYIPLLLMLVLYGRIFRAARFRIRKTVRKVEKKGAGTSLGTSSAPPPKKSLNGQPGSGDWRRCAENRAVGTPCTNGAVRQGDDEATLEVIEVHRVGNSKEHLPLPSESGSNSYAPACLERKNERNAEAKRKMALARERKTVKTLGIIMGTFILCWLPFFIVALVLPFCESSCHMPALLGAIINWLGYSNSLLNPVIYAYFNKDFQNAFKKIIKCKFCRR
The experiment in a line: Inhibitory activity against 5-hydroxytryptamine 1A receptor subtype.

Experiment [3] deals with 5-hydroxytryptamine receptor 1E (Homo sapiens, UniProt P28566). The experiment in a line: Inhibitory activity against 5-hydroxytryptamine 1E receptor subtype.

The structures appear in SMILES notation. pIC50: −log10 of the molar value. Where only a bound is given, the exact number is not on record here.

5-hydroxytryptamine receptor 1E, sequence (P28566 whole entry): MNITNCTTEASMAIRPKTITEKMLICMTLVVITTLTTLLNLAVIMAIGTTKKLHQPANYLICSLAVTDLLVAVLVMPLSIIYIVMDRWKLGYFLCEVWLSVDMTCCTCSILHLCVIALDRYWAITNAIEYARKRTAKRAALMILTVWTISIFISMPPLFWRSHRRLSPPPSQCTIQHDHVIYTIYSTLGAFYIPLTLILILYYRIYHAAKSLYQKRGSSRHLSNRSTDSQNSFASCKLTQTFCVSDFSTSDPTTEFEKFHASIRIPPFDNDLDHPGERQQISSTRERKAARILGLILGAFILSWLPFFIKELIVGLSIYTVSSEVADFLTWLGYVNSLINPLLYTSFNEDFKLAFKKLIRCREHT
Sodium-dependent serotonin transporter, sequence (P31652 whole entry): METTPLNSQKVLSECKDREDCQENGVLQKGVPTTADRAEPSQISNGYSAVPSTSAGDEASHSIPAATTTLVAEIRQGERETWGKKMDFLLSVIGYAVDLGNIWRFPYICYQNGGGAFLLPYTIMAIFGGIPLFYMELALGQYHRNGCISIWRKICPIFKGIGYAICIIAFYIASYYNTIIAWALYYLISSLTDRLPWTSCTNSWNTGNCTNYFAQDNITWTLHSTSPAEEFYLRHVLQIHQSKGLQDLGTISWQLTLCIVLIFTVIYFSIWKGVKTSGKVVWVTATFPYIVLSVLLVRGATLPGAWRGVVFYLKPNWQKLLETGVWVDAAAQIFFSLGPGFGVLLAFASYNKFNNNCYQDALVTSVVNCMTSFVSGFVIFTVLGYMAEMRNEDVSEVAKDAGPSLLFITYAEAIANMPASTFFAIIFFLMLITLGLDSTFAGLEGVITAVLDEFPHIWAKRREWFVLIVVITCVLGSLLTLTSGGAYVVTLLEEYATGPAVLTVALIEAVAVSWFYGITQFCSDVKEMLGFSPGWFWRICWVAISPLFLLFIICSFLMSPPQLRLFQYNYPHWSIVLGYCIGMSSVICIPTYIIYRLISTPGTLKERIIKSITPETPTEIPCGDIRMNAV

By pIC50 is commonly meant the negative decadic logarithm of the IC50, by convention in mol/L. For the compound `NC(=O)c1ccc2[nH]cc(C3=CCC(NCCCCCNC4CC=C(c5c[nH]c6ccc(C(N)=O)cc56)CC4)CC3)c2c1` (centres undefined), the pIC50 was 7.32 in experiment [1], 8.54 in experiment [2] and less than 6.00 in experiment [3].

For the compound `NC(=O)c1ccc2[nH]cc(C3=CCC(NCCCCCCNC4CC=C(c5c[nH]c6ccc(C(N)=O)cc56)CC4)CC3)c2c1` (centres undefined), the pIC50 is 7.47 in experiment [1], 8.64 in experiment [2] and less than 6.00 in experiment [3].

On to `NC(=O)c1ccc2[nH]cc(C3=CCC(NCCNC4CC=C(c5c[nH]c6ccc(C(N)=O)cc56)CC4)CC3)c2c1` (centres undefined), for which the pIC50 was 7.90 in experiment [1], 8.70 in experiment [2] and less than 6.00 in experiment [3].

`NC(=O)c1ccc2[nH]cc(C3=CCC(NCCCCCCCNC4CC=C(c5c[nH]c6ccc(C(N)=O)cc56)CC4)CC3)c2c1` (centres undefined): the pIC50 is 7.75 in experiment [1], 8.74 in experiment [2] and 7.00 in experiment [3].

Turning to `NC(=O)c1ccc2[nH]cc(C3=CCC(NCCCCCCCCCCCCNC4CC=C(c5c[nH]c6ccc(C(N)=O)cc56)CC4)CC3)c2c1` (centres undefined), in experiment [2], the negative logarithm of the IC50 (pIC50) is 9.89.

For `NC(=O)c1ccc2[nH]cc(C3=CCC(NCCCCCCCCNC4CC=C(c5c[nH]c6ccc(C(N)=O)cc56)CC4)CC3)c2c1` (centres undefined), the pIC50 in experiment [1] is 7.91; in experiment [2], 8.67; in experiment [3], 6.41.

`NC(=O)c1ccc2[nH]cc(C3=CCC(NCCCCNC4CC=C(c5c[nH]c6ccc(C(N)=O)cc56)CC4)CC3)c2c1` (centres undefined): the negative-log IC50 (pIC50) in experiment [1] is 7.32; in experiment [2], 7.84; in experiment [3], less than 6.00.

For the compound `NC(=O)c1ccc2[nH]cc(C3=CCC(NCCCNC4CC=C(c5c[nH]c6ccc(C(N)=O)cc56)CC4)CC3)c2c1` (centres undefined), the results for the pIC50 in experiment [2] and in experiment [3] were 7.74 and less than 6.00, respectively.

As to `NC(=O)c1ccc2[nH]cc(C3=CCC(NCCCCCCCCCCNC4CC=C(c5c[nH]c6ccc(C(N)=O)cc56)CC4)CC3)c2c1` (centres undefined), the pIC50 in experiment [2] was 9.66; in experiment [3] it was less than 6.00.

Turning to `CCCCCCCNC1CC=C(c2c[nH]c3ccc(C(N)=O)cc23)CC1` (centres undefined), the pIC50 in experiment [2] is 8.90.
